Entries after “also recorded” stand apart in the source; their conditions may differ. Like-named read-outs stand apart in the source and are kept apart here.
Assays:
Insulin Receptor = Insulin Receptor (Homo sapiens, UniProt P06213); experiment: Tyrosine kinase assay by MDS Pharma Services (Panlabs); assay type: biochemical
[1] = test system: platelets on immobilized vWf; experiment: In vitro flow studies: platelet calcium flux and adhesion on immobilized vWf; assay type: cell-based
Method: The use of an in vitro-flow based adhesion assay enables us to simultaneously analyze platelet adhesion dynamics and activation (by monitoring cytosolic calcium flux) on immobilized von Willebrand factor (vWf). Briefly, isolated platelets are perfused through vWf (100 μg/ml) coated microcapillary tubes and analysis of cytosolic calcium flux conducted in real-time by confocal microscopy.
Washed platelets (1.5×10^9) suspended in PWB were incubated with the calcium indicator dyes, Oregon Green 488 BAPTA-1, AM (1 μM) and Fura Red, AM (1.25 μM), for 30 min at 37° C. Platelets were washed twice with PWB prior to being resuspended in Tyrode's buffer containing 1 mM calcium.
For static adhesion assays, platelets were allowed to settle on the surface of vWf-coated coverslips for 30 min at 37° C. For flow assays, platelets were either perfused over a vWf-coated microcapillary tube at a constant shear rate of 600, 1800 or 10,000 s^−1 or allowed to settle on the surface of a vWf-coated microcapillary tube prior to being accelerated through a shear gradient of 10,000 s^−1 over a 1 s interval. Real time platelet calcium flux in individual platelets was monitored at 1 s intervals over the 30 min incubation period or at 0.586 s intervals for up to 175 s for static and flow-based assays, respectively.

[2] = test system: carotid artery occlusive thrombus formation in rats; experiment: Electrolytic injury carotid model in rats; assay type: in vivo
Method: Treatments were given as an i.v. bolus at time−9 min (i.e. 5 min before applying the current). Error bars are average SEM from repeated-measures ANOVA. […] Error bars are ±1 SEM. Distal to the left carotid artery flow probe, a piece of Parafilm was inserted under the vessel for electrical isolation. The artery was placed onto a hook-shaped platinum electrode, after which, it was clamped distally to the electrode to occlude blood flow and a current of 7 mA was delivered for 4 min using a constant current unit (Model CCU1, Grass Instruments, Quincy, Mass., USA) connected to a Grass SD9 stimulator. The artery clamp was released immediately after this 4 min period. Blood flow was monitored for 60 min after the end of the stimulation. Thrombosis formation was defined by blood flow falling to zero.

p110α-PI3K = target: T1, p110α-PI3K (Homo sapiens, UniProt P42336); experiment: In vitro enzyme assay, p110α immunoprecipitated from platelet lysate (Biological Example 1); assay type: biochemical
T1 construct: The α and β isoforms of the PI3K were immunoprecipitated from a platelet lysate; from tissue; host or cells: washed platelets (lysate, immunoprecipitated with anti-p110α antibody)
T1 sequence (P42336 whole entry, canonical isoform): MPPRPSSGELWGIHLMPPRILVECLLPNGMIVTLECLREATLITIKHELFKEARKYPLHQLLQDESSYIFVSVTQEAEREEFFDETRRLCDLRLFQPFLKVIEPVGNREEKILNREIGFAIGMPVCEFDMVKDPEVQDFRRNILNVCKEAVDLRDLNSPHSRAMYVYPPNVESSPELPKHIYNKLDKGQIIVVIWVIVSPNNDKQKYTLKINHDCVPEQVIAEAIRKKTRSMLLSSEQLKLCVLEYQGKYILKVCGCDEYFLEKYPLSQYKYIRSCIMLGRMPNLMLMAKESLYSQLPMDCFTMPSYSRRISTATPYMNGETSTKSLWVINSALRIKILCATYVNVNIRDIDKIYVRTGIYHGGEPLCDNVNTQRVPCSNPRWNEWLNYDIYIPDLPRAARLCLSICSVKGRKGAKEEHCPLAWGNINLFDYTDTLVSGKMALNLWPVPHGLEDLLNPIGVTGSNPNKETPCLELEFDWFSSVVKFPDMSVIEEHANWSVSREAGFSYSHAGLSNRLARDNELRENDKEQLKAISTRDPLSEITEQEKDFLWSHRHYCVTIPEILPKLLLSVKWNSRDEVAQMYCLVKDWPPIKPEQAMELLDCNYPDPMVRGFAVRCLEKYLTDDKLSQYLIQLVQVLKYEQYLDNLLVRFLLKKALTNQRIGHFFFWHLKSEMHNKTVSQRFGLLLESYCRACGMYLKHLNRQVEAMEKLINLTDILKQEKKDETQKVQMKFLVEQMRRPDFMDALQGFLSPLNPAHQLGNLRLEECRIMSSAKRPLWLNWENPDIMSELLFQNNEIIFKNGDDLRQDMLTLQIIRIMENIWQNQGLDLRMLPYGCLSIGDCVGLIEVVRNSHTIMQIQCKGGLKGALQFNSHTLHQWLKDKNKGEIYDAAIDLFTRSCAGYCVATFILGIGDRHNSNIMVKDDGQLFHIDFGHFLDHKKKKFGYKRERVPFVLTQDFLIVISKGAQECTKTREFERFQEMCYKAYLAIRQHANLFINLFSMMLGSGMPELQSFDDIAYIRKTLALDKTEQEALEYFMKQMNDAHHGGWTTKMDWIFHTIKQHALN
T1 sequence (P27986 whole entry partner, canonical isoform): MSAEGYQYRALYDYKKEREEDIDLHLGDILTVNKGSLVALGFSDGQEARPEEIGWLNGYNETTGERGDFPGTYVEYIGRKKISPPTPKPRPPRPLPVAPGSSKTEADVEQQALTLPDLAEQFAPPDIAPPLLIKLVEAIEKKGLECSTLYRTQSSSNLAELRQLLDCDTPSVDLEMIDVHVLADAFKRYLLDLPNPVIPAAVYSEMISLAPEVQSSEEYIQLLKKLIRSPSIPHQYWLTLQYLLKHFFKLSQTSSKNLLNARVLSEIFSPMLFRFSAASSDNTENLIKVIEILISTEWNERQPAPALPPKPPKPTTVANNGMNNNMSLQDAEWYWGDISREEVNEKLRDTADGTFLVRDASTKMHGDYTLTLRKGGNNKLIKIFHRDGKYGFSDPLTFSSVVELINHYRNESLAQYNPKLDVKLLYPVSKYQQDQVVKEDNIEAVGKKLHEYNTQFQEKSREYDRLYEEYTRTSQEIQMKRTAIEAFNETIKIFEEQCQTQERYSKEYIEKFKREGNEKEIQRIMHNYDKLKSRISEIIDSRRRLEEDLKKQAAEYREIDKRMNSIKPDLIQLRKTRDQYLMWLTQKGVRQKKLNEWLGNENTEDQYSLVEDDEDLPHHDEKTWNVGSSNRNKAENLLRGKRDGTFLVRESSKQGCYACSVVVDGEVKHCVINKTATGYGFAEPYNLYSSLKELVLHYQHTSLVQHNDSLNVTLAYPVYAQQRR
Method: (§1) For each immunoprecipitation, 1 mg of lysate was incubated with an anti-p110α (1 μg), anti-p110β (1 μg), anti-p110δ (1 μg) or anti-PI4 kinase antibody (2-5 μg) and 50 μl of a 50% slurry of protein A beads overnight at 4° C. […] For PI4 kinase assays, protein A beads-immune complexes were also washed twice with lysis buffer, prior to two washes with 1× PI4 kinase assay buffer (20 mM Hepes, pH 7.5, 10 mM MgCl2, 0.3% Triton X-100) and the addition of other assay constituents, as described above. All reactions were terminated by the addition of 100 μl 1 M HCl, 200 μl choloroform/methanol (1:1) and 500 μl 2 M KCl and lipids extracted by centrifugation at 15,000×g for 2 minutes. The production of PI3 or PI4 kinase lipid products, PtdIns(3)P and PtdIns(4)P, were confirmed through TLC analysis. The lipid spots were then removed from the TLC plate and the level of radioactivity quantified to accurately determine the level of PtdIns(3)P/PtdIns(4)P production.

[3] = test system: PI 3-kinase lipid products in platelets; experiment: Shear-induced PI 3-kinase lipid products in platelets (cone & plate device, HPLC); assay type: cell-based
Method: Measurements of the lipid products PtdIns(4,5)P2 and PtdIns(3,4)P2 in intact platelets were performed by initially isolating lipids by HPLC and identifying lipid peaks using defined PtdIns(4,5)P2 and PtdIns(3,4)P2 standards. Lipids were integrated and normalized to total lipid applied and expressed as a fraction of untreated (control) samples.
For this assay, whole blood was collected in the presence of anti-coagulant [6 volumes blood to 1 volume anticoagulant (90 mM sodium citrate, 7 mM citric acid, pH 4.6, 140 mM dextrose and 70 mM theophylline)] and platelets isolated and washed using a modified method of Baezinger and Majerus (1974). Briefly, platelet-rich plasma (PRP) was obtained by centrifugation of whole blood at 200×g for 30 minutes. Platelets were then pelleted by centrifugation of the PRP at 2,000×g for 10 minutes. The platelet pellet was resuspended in platelet washing buffer (PWB) [4.3 mM K2HPO4, 4.3 mM Na2HPO4, 24.3 mM NaH2PO4, pH 6.5, 113 mM NaCl, 5.5 mM glucose, 0.5% bovine serum albumin (BSA) and 10 mM theophylline]. […] Lipid peaks co-eluting with commercially available PtdIns(3,4)P2 and PtdIns(4,5)P2 standards were integrated and normalized to total lipid applied and expressed as a fraction of control samples.

PI4K = experiment: PI4 kinase assay, immunoprecipitated from platelet lysate; assay type: biochemical
Method: as §1

washed platelets = experiment: FACS analysis of integrin αIIbβ3 activation and P-selectin expression; assay type: cell-based; details: induced by thrombin, collagen and ADP; 0.5 μM TGX-221
Method: Agonists: Thrombin, 1 U/ml; ADP, […]; U46619, 1 μM; Soluble collagen 10 μg/ml.
Platelets were then stimulated with thrombin (1 U/ml), ADP ([…]), U46619 (1 μM) or collagen (10 μg/ml) for 20 min at room temperature prior to being fixed with 2% paraformaldehyde for 45 min at room temperature. Fixed platelets were washed twice with Tyrode's buffer, incubated with 1 μg/ml FITC-conjugated anti-mouse F(ab)2′ antibody for 15 min at room temperature, washed twice with Tyrode's buffer, resuspended to a final volume of 500 μl in Tyrode's buffer and analyzed by FACS.

Ab1 = Ab1 (Homo sapiens, UniProt P00519); experiment: Tyrosine kinase assay by MDS Pharma Services (Panlabs); assay type: biochemical
Sequence of Ab1 (P00519 whole entry): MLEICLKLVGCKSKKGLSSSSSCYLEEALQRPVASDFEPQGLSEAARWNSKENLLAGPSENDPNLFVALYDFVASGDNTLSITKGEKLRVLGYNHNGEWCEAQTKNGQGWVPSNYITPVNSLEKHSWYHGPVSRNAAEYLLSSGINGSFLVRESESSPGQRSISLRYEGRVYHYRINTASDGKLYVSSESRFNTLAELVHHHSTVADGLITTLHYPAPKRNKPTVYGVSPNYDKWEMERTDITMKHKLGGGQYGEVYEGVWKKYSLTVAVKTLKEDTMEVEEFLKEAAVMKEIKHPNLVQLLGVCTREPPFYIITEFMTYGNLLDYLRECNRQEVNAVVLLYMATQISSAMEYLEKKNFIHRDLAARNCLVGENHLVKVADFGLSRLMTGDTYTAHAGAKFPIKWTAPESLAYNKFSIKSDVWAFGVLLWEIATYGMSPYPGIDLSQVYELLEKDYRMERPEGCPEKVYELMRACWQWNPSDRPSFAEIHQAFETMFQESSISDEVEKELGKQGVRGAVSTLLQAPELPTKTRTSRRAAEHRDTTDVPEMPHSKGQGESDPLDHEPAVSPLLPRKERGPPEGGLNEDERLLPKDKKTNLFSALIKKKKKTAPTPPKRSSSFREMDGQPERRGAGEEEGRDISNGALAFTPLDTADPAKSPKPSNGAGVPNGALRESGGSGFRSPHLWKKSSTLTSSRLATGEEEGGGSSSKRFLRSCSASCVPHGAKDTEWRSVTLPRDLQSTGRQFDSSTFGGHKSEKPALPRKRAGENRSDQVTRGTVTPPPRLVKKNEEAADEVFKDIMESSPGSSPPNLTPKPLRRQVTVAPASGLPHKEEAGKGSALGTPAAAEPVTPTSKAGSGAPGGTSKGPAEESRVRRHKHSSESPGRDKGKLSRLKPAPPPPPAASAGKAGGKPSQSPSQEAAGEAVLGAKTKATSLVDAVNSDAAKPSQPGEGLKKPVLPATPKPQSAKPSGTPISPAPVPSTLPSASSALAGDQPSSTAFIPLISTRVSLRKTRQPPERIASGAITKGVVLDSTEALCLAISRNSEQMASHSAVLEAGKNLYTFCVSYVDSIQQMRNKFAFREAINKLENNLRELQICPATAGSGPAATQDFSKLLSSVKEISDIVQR

Sequence of Insulin Receptor (P06213 28-1382, species assumed): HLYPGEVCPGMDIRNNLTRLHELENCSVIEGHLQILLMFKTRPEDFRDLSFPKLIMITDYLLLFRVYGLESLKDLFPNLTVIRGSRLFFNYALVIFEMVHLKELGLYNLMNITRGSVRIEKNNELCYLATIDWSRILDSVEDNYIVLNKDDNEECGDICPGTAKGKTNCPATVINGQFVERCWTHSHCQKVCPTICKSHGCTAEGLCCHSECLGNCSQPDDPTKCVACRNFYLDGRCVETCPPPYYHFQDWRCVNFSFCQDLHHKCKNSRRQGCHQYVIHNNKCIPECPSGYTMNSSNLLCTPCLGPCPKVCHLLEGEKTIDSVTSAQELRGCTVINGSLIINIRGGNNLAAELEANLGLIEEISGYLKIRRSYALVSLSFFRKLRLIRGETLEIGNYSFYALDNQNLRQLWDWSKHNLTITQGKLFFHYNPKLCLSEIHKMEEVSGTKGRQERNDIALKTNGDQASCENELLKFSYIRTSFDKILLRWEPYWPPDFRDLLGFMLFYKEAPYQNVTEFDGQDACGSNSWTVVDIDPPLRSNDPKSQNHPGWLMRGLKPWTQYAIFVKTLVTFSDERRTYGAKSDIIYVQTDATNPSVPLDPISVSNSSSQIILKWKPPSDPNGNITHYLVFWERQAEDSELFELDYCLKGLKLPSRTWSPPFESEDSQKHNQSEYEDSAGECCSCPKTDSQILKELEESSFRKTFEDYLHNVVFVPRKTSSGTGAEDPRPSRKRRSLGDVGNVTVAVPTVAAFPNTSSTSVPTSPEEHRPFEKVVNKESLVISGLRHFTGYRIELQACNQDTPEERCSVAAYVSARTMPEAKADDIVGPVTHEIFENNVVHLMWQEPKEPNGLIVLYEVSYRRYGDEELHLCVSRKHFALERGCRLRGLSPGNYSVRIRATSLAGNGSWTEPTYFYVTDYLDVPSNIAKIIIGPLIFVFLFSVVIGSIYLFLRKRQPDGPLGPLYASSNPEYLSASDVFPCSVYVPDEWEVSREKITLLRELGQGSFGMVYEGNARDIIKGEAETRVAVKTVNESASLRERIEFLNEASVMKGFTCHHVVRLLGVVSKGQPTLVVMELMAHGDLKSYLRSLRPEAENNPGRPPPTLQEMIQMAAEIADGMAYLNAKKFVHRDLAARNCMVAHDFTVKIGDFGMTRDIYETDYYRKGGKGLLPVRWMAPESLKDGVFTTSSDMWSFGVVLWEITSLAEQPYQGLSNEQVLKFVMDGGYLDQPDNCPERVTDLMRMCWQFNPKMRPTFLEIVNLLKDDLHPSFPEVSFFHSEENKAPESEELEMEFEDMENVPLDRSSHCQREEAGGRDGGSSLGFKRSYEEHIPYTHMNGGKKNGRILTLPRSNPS

IC50 (Insulin Receptor): > 10 µM | IC50 (p110α-PI3K; Table I, read-out: inhibitory concentration, alpha): > 5 µM | IC50 (p110α-PI3K; read-out: IC50 (μM), p110α-PI3K): 5 µM | IC50 (PI4K): > 10 µM | IC50 (Ab1): > 10 µM
Compound: Cc1cc(C(C)Nc2ccccc2)c2nc(N3CCOCC3)cc(=O)n2c1 (racemic) [TGX-221, (±)-7-methyl-2-morpholin-4-yl-9-(1-phenylaminoethyl)-pyrido[1,2-a]pyrimidin-4-one]
γ-independent GPIb calcium signalling ([1]; 0.5 μM): did not inhibit | platelet responses to accelerated shear ([1]; vWf matrix, shear rate gradient up to 10,000 s^−1 over 1 s): Eliminates Platelet Responses to Accelerated Shear | baseline arterial blood pressure, heart rate or carotid artery blood flow ([2]; both the Folts and electrolytic studies): no effect | occlusive thrombus formation ([2]; rats, 2 mg/kg in PG 5 minutes before injury, in words, 90% occlusion rate in vehicle-treated rats): completely prevented | carotid blood flow volume over the 60 min post-injury period ([2]; rats, 2 mg/kg, in words): preserving; also recorded: preserved | cellular levels of conventional phosphoinositides PtdIns, PtdIns(4)P and PtdIns(4,5)P2 ([3]; in words): without altering | PI 3-kinase lipid generation ([3]; shear 5000 s^−1, in words): selectively inhibited PI 3-kinase lipid generation | inhibitory effect on PI4 kinase (PI4K; in words): minimal inhibitory effect | integrin αIIbβ3 activation (PAC-1 binding) (washed platelets): unaffected
